# Source: paper PMC7966987, “Insights into the catalytic properties of the mitochondrial rhomboid protease PARL” (The Journal of Biological Chemistry, 2021)
# Residues, ends and D or L forms follow the SMILES beside them.
# Legend:
# [1] = biological target: T1, PARLΔ77 (Homo sapiens, UniProt Q9H300); experiment: Inhibition by commercial serine protease inhibitors, PARLΔ77 in detergent; type: biochemical; conditions: 100 μM inhibitor, IQ-PINK1 and IQ-PGAM5 substrates, N=3
# T1 construct: GFP-hexahistidine (behind a TEV cleavage site) (C, cleaved yes); made in house; host or cells: Pichia pastoris
# T1 sequence (Q9H300 78-379): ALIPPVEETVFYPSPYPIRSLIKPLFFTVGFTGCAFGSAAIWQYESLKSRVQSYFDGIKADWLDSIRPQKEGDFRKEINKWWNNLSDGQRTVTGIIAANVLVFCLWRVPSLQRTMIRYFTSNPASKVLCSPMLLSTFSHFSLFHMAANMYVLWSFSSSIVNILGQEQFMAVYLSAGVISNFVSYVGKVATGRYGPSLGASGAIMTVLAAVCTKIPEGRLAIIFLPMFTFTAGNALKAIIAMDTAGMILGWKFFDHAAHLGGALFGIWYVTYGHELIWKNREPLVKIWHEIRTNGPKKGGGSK
# Description: We examined whether inhibitors belonging to three standard serine protease inhibitors families—sulfonyl fluoride (PMSF), chloromethyl ketone (TPCK), and coumarin (DCI)—were able to inhibit PARL when tested with IQ-PINK1 and IQ-PGAM5 substrates. […] Overall this supports the view that for PARL, specific inhibitors will need to be developed similar to bacterial rhomboid proteases ([48], [49]). […]
# (§1) inhibitors. Bar graphs for percent activity of detergent solubilized (A) and proteoliposome reconstituted (B) PA R L Δ77with100µMofinhibitoradded prior to the addition of IQ-PINK1 and IQ-PGAM5 substrates. Experiments were conducted in duplicate with an N=3.
# (§2) Individual data points (black dots) are indicated on the bar graphs, representing the mean […]
# [2] = biological target: T1, PARLΔ77; experiment: Inhibition by commercial serine protease inhibitors, PARLΔ77 in proteoliposomes; type: biochemical; conditions: 100 μM inhibitor, in PL, IQ-PINK1 and IQ-PGAM5 substrates, N=3
# Protocol: We examined whether inhibitors belonging to three standard serine protease inhibitors families—sulfonyl fluoride (PMSF), chloromethyl ketone (TPCK), and coumarin (DCI)—were able to inhibit PARL when tested with IQ-PINK1 and IQ-PGAM5 substrates. […] Overall this supports the view that for PARL, specific inhibitors will need to be developed similar to bacterial rhomboid proteases ([48], [49]).
# The activity assay with PARL reconstituted in PL was performed the same way as for PARL in DDM with the only difference being the activity buffer, where DDM was omitted (50 mM Tris-HCl pH 7.0, 150 mM NaCl, 10% glycerol). For inhibitory studies, PARL in PL (0.8 μM) was incubated with inhibitors (20 μM) in activity buffer for 30 min, and then the proteolytic reaction was started with the addition of substrate (5 μM). […]
# as §1, §2
# [3] = system: Rhomboid-1; conditions: cited from earlier work
# Description: (§3) Rhomboids were initially discovered to be serine proteases because the first identified rhomboid protease from Drosophila, Rhomboid-1, was sensitive to serine protease inhibitors dichloroisocoumarin (DCI) and tosyl phenylalanyl chloromethylketone (TPCK) ([44]).
# [4] = biological target: T1, PARLΔ77; experiment: Competition assay, IQ-PGAM5(20-29) cleavage in presence of PINK1(89-111); type: biochemical; conditions: read-out: Ki (Kd represented by Ki of the PARL-PINK1(89-111) complex)
# Description: (§4) To determine if substrates bind to the same site, we performed competition binding assays using fluorescent IQ-PGAM5^20–29 and IQ-Smac/Diablo^51–60 as the main substrates and nonfluorescent PINK1^89–111 (^89[…]^111) as a competing substrate (Fig. 4). The longer version of substrate was used in this assay in order to reveal possible exosite interactions of substrate with PARL, assuming that regions surrounding the cleavage site might be involved in a primary substrate binding with a putative exosite.
# (§5) Fluorescence detection of each substrate concentration in the presence of corresponding PINK189-111 without enzyme was used as a negative control. Initial velocities were determined for each substrate concentration. Michaelis–Menten plots were subjected to global fit to distinguish the kinetic model and determine the kinetic parameters. Values are represented as mean ± SEM (N = 3). […] The only names printed in the panels are the substrates on the x-axis, and KM and kcat are assigned to them.
# (§6) The Michaelis–Menten curves of PARL-mediated cleavage of IQ-PGAM5^20–29 and IQ-Smac/Diablo^51–60 were obtained in the presence of different concentrations of PINK1^89–111.
# [5] = biological target: T1, PARLΔ77; experiment: Competition assay, IQ-Smac/Diablo(51-60) cleavage in presence of PINK1(89-111); type: biochemical; conditions: read-out: Ki (Kd represented by Ki of the PARL-PINK1(89-111) complex)
# Description: as §4, §5, §6
# [6] = system: bacterial rhomboid proteases; conditions: cited from earlier work
# Description: as §3
# [7] = biological target: T1, PARLΔ77; experiment: Lipid effect on PARLΔ77 cleavage of FRET-PINK1(70-134); type: biochemical; conditions: vs no lipid, N = 4
# Description: Lipids are known to influence membrane protein function ([29]). In mitochondria, for example, increased CL amounts are observed during mitochondrial stress, which influences protein function at the molecular level ([30]). Therefore, we assessed the effect of the three primary lipids present in the IMM, namely CL, phosphatidylcholine (POPC), and phosphatidylethanolamine (POPE) on PARLΔ77 activity with the FRET-PINK^70–134 substrate (Fig. 1D) ([31]). The lipid-free conditions were used as a baseline and consisted of PARLΔ77 reconstituted in detergent (DDM) micelles, while all lipid conditions consisted of a mixed detergent-lipid micelle system. First we assess the effect of different classes of lipids. […] In order to precisely determine the optimal concentration of CL for PARL activity, the initial velocities of PARL-mediated cleavage of FRET-PINK1^70–134 were measured in the presence of increasing concentrations of CL. […] Therefore, CL was included in all subsequent protein preparations of detergent-solubilized PARL at the last purification step.
# Figure S5. The dependence of PA R LΔ77activity on CL concentration. The initial velocities of PA R LΔ77weremeasuredin the presence of different molar ratios of CL using FRET-PINK170-134 substrate. One-way ANOVA with multiple comparisons was performed between the no-lipid condition and each molar ratio of CL:protein to determine if differences observed were significant. A total of five experimental replicates performed in duplicate were used for data analysis (N = 5). Individual data points (black dots) are indicated on the bar graphs, representing the mean ±SEM
# (1 picture or pasted object on this page, not shown here)
# [8] = biological target: PARLΔ77 (β-cleavage form of human PARL) (human) (UniProt Q9H300); experiment: competitive inhibition of FRET peptide cleavage (enzyme kinetics); PARLΔ77 0.8 μM; IQ-Smac/Diablo 51-60 (0.3–25 μM) as main substrate; nonfluorescent PINK1 89-111 at 2.5, 5, 10, 20 μM; Michaelis–Menten plots fitted globally, competitive model; Kd represented by Ki
# [9] = biological target: PARLΔ77 (β-cleavage form of human PARL) (human) (UniProt Q9H300); experiment: competitive inhibition of FRET peptide cleavage (enzyme kinetics); PARLΔ77 0.8 μM; IQ-PGAM5 20-29 (0.13-19 μM) as main substrate; nonfluorescent PINK1 89-111 at 2.5, 5, 10, 20 μM; Michaelis–Menten plots fitted globally, competitive model; Kd represented by Ki
# [10] = lipid at molar ratio 50:1, mixed detergent (DDM)-lipid micelles
# Chain of PARLΔ77 (β-cleavage form of human PARL) (human) (Q9H300 77-379, stated change not applied): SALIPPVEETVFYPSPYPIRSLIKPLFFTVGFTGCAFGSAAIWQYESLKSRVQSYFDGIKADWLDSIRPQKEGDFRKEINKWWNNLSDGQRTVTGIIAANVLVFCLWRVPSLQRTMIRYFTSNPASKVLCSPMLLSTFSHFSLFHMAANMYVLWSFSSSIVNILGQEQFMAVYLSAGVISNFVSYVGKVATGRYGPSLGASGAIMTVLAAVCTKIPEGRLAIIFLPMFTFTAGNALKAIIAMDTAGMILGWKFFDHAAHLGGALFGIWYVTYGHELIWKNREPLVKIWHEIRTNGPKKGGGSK
molecule,measurement,setting,value
"O=c1oc(Cl)c(Cl)c2ccccc12 [DCI, dichloroisocoumarin]",inhibition of PARL activity,[1],largest inhibitory effect
same,inhibition of PARL activity,[2],largest inhibitory effect
same,inhibition of Drosophila Rhomboid-1,[3],sensitive
CC[C@H](C)[C@H](NC(=O)[C@H](CC(C)C)NC(=O)CNC(=O)[C@H](CC(C)C)NC(=O)CNC(=O)[C@H](CC(C)C)NC(=O)CNC(=O)[C@H](Cc1ccccc1)NC(=O)[C@H](C)NC(=O)[C@H](CC(C)C)NC(=O)[C@H](Cc1ccccc1)NC(=O)[C@@H](NC(=O)[C@H](C)NC(=O)[C@H](CCCNC(=N)N)NC(=O)CNC(=O)[C@H](CS)NC(=O)[C@@H]1CCCN1C(=O)CNC(=O)[C@H](C)NC(=O)[C@H](CS)NC(=O)CNC(=O)[C@H](Cc1c[nH]c2ccccc12)NC(=O)[C@H](C)NC(=O)[C@H](CO)NC(=O)CN)C(C)C)C(=O)O [PINK1^89–111] (H-GSAWGCAGPCGRAVFLAFGLGLGLI-OH),Ki,[4],2400 ± 600 nM
same,Ki,[5],2300 ± 700 nM
O=S(=O)(F)Cc1ccccc1 [PMSF],inhibition of PARL activity,[1],not inhibited
same,inhibition of PARL activity,[2],not inhibited
same,inhibition of bacterial rhomboid proteases,[6],does not act on bacterial rhomboid proteases
"Cc1ccc(S(=O)(=O)N[C@@H](Cc2ccccc2)C(=O)CCl)cc1 [TPCK, tosyl phenylalanyl chloromethylketone]",inhibition of PARL activity,[1],partially inhibits
same,inhibition of PARL activity,[2],partially inhibits
same,inhibition of Drosophila Rhomboid-1,[3],sensitive
cardiolipin [CL],effect on PARL activity,[7]; [10],significant increase in PARL activity
phosphatidylethanolamine [POPE],effect on PARL activity,[7]; [10],did not significantly increase PARL activity
same,effect on PARL activity,"[7]; lipid at molar ratio 100:1, mixed detergent (DDM)-lipid micelles",did not significantly increase PARL activity
"AWGCAGPCGRAVFLAFGLGLGLI [PINK1 TM domain (amino acids 89–111), nonfluorescent]",Ki,[8],2300 nM
same,Ki,[9],2400 nM
